Test results: patent publication US7375086B2, “Modulators of Nod2 signaling” (The Regents of the University of Michigan, priority 2000, dated 2008)
Entries after “also recorded” stand apart in the source; their conditions may differ.

Key:
Nod2 = target: T1, Nod2 (Homo sapiens, UniProt Q9HC29, R703H); test: NF-κB reporter assay in HEK293T/HEK293 cells expressing Nod2; assay type: cell-based
T1 construct: ligated to generate an unique cDNA containing the entire open reading frame of Nod2; expressed in transfected cells; host or cells: HEK293T

P268S NOD2 = target: T2, P268S NOD2 (Homo sapiens, UniProt Q9HC29, P268S); test: NF-κB reporter assay in HEK293T cells expressing P268S NOD2; assay type: cell-based; conditions: 100 ng/ml MDP
T2 construct: expressed in transfected cells; host or cells: HEK293T
Protocol: (§1) HEK293T cells were transfected with 0.3 μg of pMX-puro expressing normal Nod2 or mutants carrying P268S (SEQ ID NOs:56 (nucleic acid) and 57 (amino acid), P268S/R702W (SEQ ID NOs: 57 (nucleic acid) and 58 (amino acid)), P268S/G908 (SEQ ID NOs: 60 (nucleic acid) and 61 (amino acid)), P268S/L1007fsinsC (SEQ ID NOs: 54 (nucleic acid) and 55 (amino acid)) or empty plasmid (−). Eight hours post-transfection, 100 ng/ml MDP was added to the cultured cells and at 24 hours post-transfection NF-κB activity was determined as described in FIG. 1A. Values represent the normalized mean data ±S.D. of triplicate cultures. The results shown are representative of three separate experiments.

P268S/R702W NOD2 = target: T3, P268S/R702W NOD2 (Homo sapiens, UniProt Q9HC29, P268S/R702W); test: NF-κB reporter assay in HEK293T cells expressing P268S/R702W NOD2; assay type: cell-based; conditions: 100 ng/ml MDP
T3 construct: expressed in transfected cells; host or cells: HEK293T
Protocol: as §1

P268S/G908R NOD2 = target: T4, P268S/G908R NOD2 (Homo sapiens, UniProt Q9HC29, G908R/P268S); test: NF-κB reporter assay in HEK293T cells expressing P268S/G908R NOD2; assay type: cell-based; conditions: 100 ng/ml MDP
T4 construct: expressed in transfected cells; host or cells: HEK293T
Protocol: as §1

P268S/L1007fsinsC NOD2 = target: T5, P268S/L1007fsinsC NOD2 (Homo sapiens, UniProt Q9HC29, P268S); test: NF-κB reporter assay in HEK293T cells expressing P268S/L1007fsinsC NOD2; assay type: cell-based; conditions: 100 ng/ml MDP
T5 construct: expressed in transfected cells; host or cells: HEK293T
Protocol: as §1

NF-κB = NF-κB binding activity by EMSA in nuclear extracts of PBMNC; assay type: cell-based, human; conditions: 1 μg/ml LPS from Salmonella typhimurium, 10 ng/ml MDP, 1 hour; for response of PBMNC (NF-κB-DNA complex, EMSA): PBMNC from individuals homozygous for L1007fsinsC
Protocol: (§2) FIGS. 20C and D show PBMNC analyzed for expression of IL-1β (C) and A1 (D) transcripts by quantitative RT-PCR.
(§3) Genotyping was performed using a ddNTP primer extension system. Nuclear extracts from LPS-stimulated cells were pre-incubated with antibody specific for p50 subunit of NF-κB to monitor the size of the NF-κB-DNA complex. cDNA was amplified with specific primers for human IL-1β, glyceraldehyde-3-phosphate-dehydrogenase (GAPDH) as described (5) and A1 (5′-[…]-3′ (SEQ ID NO: 53) and 5′-[…]-3′ (SEQ ID NO:54)). The levels of IL-1β and A1 transcripts normalized to that of GAPDH were expressed relative to those in untreated cells that were considered as baseline. Specificity of the desired PCR products was determined by melting curve analysis. Histograms represent the mean ±S.D. of triplicate analyses.
The NOD2 variants associated with Crohn's disease, R702W, G908R and L1007fsinsC, occur on the same haplotype background, which includes the common P268S polymorphism (Hugot et al., Nature 411:599 [2001]; Ogura et al., Nature 411:603 [2001]). To compare the ability of normal and mutant NOD2 proteins to induce NF-κB activity in response to MDP, the NOD2 proteins were expressed in cells and evaluated in a functional assay. […] The role of NOD2 in the recognition of MDP by primary cells from normal and Crohn's disease patients was next determined. A panel of healthy and Crohn's disease individuals were genotyped for the disease-associated NOD2 alleles and two individuals (one without clinical evidence of disease and one individual with Crohn's disease) who were homozygous for the loss-of-function L1007fsinsC mutation were identified (FIG. 20A). The identification of apparently healthy individuals homozygous for L1007fsinsC is expected in that the penetrance of the L1007fsinsC mutation is not complete (Hugot et al., supra; Ogura et al., supra; Hampe et al., Lancet 357:1925 [2001]; Ahmad et al., Gastroenterology 122:854 [2002]). Peripheral blood mononuclear cells (PBMNC) that are known to express NOD2 were isolated, incubated with MDP or LPS and NF-κB activation was assessed in nuclear extracts by an electrophoretic mobility shift assay (EMSA).

IL-1β mRNA = test: Quantitative RT-PCR of IL-1β transcripts in PBMNC; assay type: cell-based, human; conditions: normal or heterozygous NOD2 alleles, LPS 1 μg/ml, MDP 10 ng/ml
Protocol: as §2, §3
(§4) To further assess NF-κB activation, the mRNA levels of EL-1β and A1, two NF-κB target genes expressed in PBMNC (Cogswell et al., J. Immunol. 153:712 [1994]; Zong et al., Genes Dev. 13:384 [1999]), were evaluated by quantitative real-time polymerase-chain reaction (RT-PCR) analysis. Both IL-1β and A1 mRNA levels were induced by incubation with LPS and MDP in cells from individuals carrying normal or heterozygous NOD2 alleles (FIG. 20C and 20D). […] Thus, PBMNC require the expression of normal NOD2 for their response to MDP but not to LPS.

A1 mRNA = test: Quantitative RT-PCR of A1 transcripts in PBMNC; assay type: cell-based, human; conditions: LPS 1 μg/ml, MDP 10 ng/ml
Protocol: as §2, §3, §4

T1 sequence (Q9HC29 whole entry R703H): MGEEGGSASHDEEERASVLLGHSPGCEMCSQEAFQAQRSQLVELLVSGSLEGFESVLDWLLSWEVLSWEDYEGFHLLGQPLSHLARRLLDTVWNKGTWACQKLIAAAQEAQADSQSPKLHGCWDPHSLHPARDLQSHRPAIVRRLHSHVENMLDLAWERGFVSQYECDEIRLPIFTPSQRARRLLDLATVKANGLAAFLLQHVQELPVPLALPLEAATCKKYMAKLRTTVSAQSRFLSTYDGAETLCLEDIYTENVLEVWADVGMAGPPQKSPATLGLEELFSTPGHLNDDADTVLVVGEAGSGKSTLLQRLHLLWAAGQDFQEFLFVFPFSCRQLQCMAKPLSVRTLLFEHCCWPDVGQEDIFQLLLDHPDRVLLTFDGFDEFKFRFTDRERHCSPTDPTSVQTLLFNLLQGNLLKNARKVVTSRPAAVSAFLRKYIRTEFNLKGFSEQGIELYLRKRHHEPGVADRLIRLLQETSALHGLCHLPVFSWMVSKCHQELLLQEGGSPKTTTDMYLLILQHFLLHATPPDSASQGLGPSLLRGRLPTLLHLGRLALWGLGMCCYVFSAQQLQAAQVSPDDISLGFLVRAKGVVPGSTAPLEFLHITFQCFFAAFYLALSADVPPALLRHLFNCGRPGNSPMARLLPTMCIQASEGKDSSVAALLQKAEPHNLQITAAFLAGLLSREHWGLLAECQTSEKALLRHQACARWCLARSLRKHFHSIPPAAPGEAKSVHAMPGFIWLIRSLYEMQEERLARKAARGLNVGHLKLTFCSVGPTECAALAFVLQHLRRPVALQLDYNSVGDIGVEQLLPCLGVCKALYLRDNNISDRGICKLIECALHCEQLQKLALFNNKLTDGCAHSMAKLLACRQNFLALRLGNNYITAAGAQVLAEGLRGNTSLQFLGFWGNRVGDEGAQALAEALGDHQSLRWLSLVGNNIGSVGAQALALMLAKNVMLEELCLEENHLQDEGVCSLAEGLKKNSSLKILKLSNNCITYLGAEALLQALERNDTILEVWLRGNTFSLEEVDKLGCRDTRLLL
T3 sequence (Q9HC29 whole entry P268S/R702W): as the sequence (Q9HC29 whole entry R703H) above, with P268S, R702W, H703R counted along it
T5 sequence (Q9HC29 with tags, fused parts or gaps P268S): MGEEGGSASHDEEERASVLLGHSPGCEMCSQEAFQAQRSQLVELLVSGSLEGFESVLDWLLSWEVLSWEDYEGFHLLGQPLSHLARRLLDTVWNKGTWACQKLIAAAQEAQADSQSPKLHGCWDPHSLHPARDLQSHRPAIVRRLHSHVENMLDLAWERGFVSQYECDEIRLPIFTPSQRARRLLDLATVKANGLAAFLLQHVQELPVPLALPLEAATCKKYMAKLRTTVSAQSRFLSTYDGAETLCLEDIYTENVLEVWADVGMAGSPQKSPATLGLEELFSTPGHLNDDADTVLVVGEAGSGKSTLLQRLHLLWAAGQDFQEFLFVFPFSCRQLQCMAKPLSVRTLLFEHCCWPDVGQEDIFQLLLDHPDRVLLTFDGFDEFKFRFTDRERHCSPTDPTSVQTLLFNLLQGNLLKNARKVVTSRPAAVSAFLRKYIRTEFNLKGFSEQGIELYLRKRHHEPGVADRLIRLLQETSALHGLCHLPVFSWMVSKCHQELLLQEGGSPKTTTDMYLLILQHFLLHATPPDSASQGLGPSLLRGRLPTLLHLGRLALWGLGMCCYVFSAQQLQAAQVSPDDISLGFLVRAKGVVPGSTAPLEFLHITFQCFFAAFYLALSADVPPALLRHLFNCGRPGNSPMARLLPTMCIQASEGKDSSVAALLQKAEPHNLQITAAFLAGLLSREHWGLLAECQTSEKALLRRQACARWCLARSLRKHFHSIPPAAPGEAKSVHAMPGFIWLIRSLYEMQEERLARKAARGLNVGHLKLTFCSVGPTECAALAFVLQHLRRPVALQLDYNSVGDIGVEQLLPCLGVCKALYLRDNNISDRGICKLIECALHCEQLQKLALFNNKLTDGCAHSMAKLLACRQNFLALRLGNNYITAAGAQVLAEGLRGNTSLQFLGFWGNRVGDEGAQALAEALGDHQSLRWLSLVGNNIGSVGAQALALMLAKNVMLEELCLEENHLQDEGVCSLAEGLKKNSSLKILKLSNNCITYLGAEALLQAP
T2 sequence (Q9HC29 whole entry P268S): as the sequence (Q9HC29 whole entry R703H) above, with P268S, H703R counted along it
T4 sequence (Q9HC29 whole entry P268S/G908R): as the sequence (Q9HC29 whole entry R703H) above, with P268S, H703R, G908R counted along it

Q: For CC(=O)N[C@@H]1[C@@H](O[C@H](C)C(=O)N[C@@H](C)C(=O)N[C@H](CCC(=O)O)C(N)=O)[C@H](O)[C@@H](CO)O[C@H]1O [MDP, MurNAc-L-Ala-D-isoGln], which “NOD2-dependent stimulation of NF-κB by synthetic muropeptides” value (Nod2; HEK293T cells, 66 ng pMX-puro-NOD2 (FIG. 18B)) is on record?
A: induced potent stimulation of NOD2; also recorded: induced Nod2-dependent activation of NF-κB

Q: And the “NF-κB activation in response to MDP, normal NOD2” value (Nod2; HEK293T cells, 100 ng/ml MDP)?
A: induced similar levels of NF-κB activation

Q: And the “stimulation of NOD2 activity” value (Nod2; HEK293 cells, 0.3 ng pcDNA3-Nod2, MDP 100 ng/ml, sBLP 1000 ng/ml (FIG. 18D))?
A: stimulated NOD2 activity

Q: What about the “NF-κB activation in response to MDP, P268S NOD2” value (P268S NOD2) of the same molecule?
A: induced similar levels of NF-κB activation

Q: And the “NF-κB activation in response to MDP, P268S/R702W variant compared to normal NOD2” value (P268S/R702W NOD2)?
A: greatly reduced levels of NF-κB activation; also recorded: retained some ability to respond

Q: And the “NF-κB activation in response to MDP, P268S/G908R variant compared to normal NOD2” value (P268S/G908R NOD2)?
A: greatly reduced levels of NF-κB activation

Q: What about the “NF-κB activation in response to MDP, P268S/L1007fsinsC variant compared to normal NOD2” value (P268S/L1007fsinsC NOD2) of the same molecule?
A: greatly reduced levels of NF-κB activation; also recorded: did not respond at all

Q: And the “induction of the NF-κB-DNA complex (EMSA)” value (NF-κB; PBMNC from individuals carrying normal or heterozygous NOD2 alleles)?
A: resulted in induction of the NF-κB-DNA complex

Q: And the “response of PBMNC (NF-κB-DNA complex, EMSA)” value (NF-κB)?
A: but not to MDP

Q: What about the “response of PBMNC (NF-κB-DNA complex, EMSA)” value (NF-κB; listed as muramyl dipeptide) of the same molecule?
A: defective in their response

Q: And the “IL-1β mRNA levels” value (IL-1β mRNA)?
A: induced

Q: And the “A1 mRNA levels” value (A1 mRNA; homozygous for L1007fsinsC)?
A: but not MDP

Q: And the “A1 mRNA levels” value (A1 mRNA; normal or heterozygous NOD2 alleles)?
A: induced
